# Measured values reported in US11541130B2, “Systems and methods for nucleic acid expression in vivo” (DNARx, priority 2017, dated 2023).
# B1: Neupogen: recombinant human G-CSF protein (protein, UniProt P09919 31-207, looked up)
# Granulocyte …: TPLGPASSLPQSFLLKCLEQVRKIQGDGAALQEKLVSECATYKLCHPEELVLLGHSLGIPWAPLSSCPSQALQLAGCLSQLHSGLFLYQGLLQALEGISPELGPTLDTLQLDVADFATTIWQQMEELGMAPALQPTQGAMPAFASAFQRRAGGVLVASHLQSFLEVSYRVLRHLAQP
# modifications: filgrastim
# notes: recombinant human G-CSF protein
# How the values were obtained:
# [1] = format: in vivo; conditions: mice
# [2] = in vivo; cited from earlier work
molecule,measurement,setting,value
Rituximab: anti-CD20 monoclonal antibody expressed in mice from plasmid vector containing Rituximab cDNA,Duration of serum anti-CD20 mAb (Rituximab) expression,"[1]; after a single sequential IV injection, 1050 nmol DOTAP 2.5% DP, 75 ug plasmid",over 275 days
dexamethasone palmitate,"Serum anti-CD20 mAb (Rituximab) level, in words",[1]; ELISA 24 hrs after sequential injection (Example 18: also over time),further increases gene expression in vivo
B1,Time for serum HG-CSF levels to return to baseline after each daily dose,[2],approximately 14 hours
